# Test results reported in BindingDB's records for doi:10.1021/acs.jmedchem.0c01754 (Astrazeneca, 2020).
# Biological target: Cyclin-T1/Cyclin-dependent kinase 9 (Homo sapiens, UniProt O60563+P50750)
# Experiment: Inhibition of recombinant full length human N-terminal GST-fused CDK9 (1 to 372 residues)/His-tagged CyclinT1 (1 to 726 residues) expressed in baculovirus infected insect cells using FITC-X-GSRTPMY-NH2 as substrate preincubated for 10 mins followed by MgCl2 addition and measured after 90 mins in presence of 5 mM ATP by mobility shift assay
# Cyclin-T1/Cyclin-dependent kinase 9, sequence (O60563 whole entry, the tested form may be a part): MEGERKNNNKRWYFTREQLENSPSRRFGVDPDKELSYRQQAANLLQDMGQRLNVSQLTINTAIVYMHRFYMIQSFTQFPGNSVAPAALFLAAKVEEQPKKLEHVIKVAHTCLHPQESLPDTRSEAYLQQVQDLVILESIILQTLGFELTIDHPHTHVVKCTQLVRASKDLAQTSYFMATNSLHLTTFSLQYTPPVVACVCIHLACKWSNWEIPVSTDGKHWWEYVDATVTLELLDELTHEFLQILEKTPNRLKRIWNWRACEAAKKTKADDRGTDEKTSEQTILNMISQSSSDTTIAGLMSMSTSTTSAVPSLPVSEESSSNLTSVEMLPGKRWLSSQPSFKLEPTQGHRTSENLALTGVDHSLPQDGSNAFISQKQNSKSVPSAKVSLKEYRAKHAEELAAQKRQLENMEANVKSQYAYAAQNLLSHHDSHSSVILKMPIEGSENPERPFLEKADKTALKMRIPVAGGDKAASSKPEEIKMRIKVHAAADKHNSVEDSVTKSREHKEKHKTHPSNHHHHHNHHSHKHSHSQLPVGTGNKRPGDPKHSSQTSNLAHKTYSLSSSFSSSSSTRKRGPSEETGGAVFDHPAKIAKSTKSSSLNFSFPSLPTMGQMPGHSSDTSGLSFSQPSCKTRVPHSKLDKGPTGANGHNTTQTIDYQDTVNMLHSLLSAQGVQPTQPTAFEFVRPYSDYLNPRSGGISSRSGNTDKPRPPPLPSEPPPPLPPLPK
# Cyclin-T1/Cyclin-dependent kinase 9, sequence (P50750 whole entry, the tested form may be a part): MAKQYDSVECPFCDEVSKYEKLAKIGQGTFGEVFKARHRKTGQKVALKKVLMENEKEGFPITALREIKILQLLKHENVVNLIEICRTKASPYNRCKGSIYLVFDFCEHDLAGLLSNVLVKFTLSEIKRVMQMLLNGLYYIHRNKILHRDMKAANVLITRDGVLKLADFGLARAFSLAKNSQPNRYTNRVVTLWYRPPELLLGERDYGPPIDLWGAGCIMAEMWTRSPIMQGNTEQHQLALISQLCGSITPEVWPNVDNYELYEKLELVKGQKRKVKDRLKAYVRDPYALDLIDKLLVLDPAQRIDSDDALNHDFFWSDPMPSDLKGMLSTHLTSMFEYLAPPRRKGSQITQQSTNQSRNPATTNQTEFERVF
row,IC50 [nM],SMILES
1,350,"CC(=O)N[C@@H]1CCC[C@H](C(=O)Nc2cc(-c3cnn4c3NCCC4)c(Cl)cn2)C1 [US10717746, Example 15]"
2,4,"CC(=O)N[C@@H]1CCC[C@H](C(=O)Nc2cc(-c3cnn4c3CC(C)(C)C4)c(F)cn2)C1 [US10717746, Example 25]"
3,25,"CC1(C)Cc2c(-c3cc(NC(=O)[C@H]4C[C@@H](O)C4)ncc3Cl)cnn2C1 [US10717746, Example 27]"
4,62,"CC(=O)N[C@@H]1CCC[C@H](C(=O)Nc2cc(-c3cnn4c3CC(C)(C)C4)c(C#N)cn2)C1 [US10717746, Example 39]"
5,8,"CC(=O)N[C@@H]1CCC[C@H](C(=O)Nc2cc(-c3cnn4c3CC(C)(C)CC4)ccn2)C1 [US10717746, Example 44]"
6,3,"CC(=O)N[C@@H]1CC[C@H](C(=O)Nc2cc(-c3cnn4c3CC(C)(C)C4)c(Cl)cn2)C1 [US10717746, Example 48]"
7,51,"CC(=O)N[C@@H]1CCC[C@H](C(=O)Nc2cc(-c3cnn4c3CCCC4)c(F)cn2)C1 [US10717746, Example 63]"
8,23,"CC(=O)N[C@@H]1CCC[C@H](C(=O)Nc2cc(-c3cnn4c3CCCCC4)c(Cl)cn2)C1 [US10717746, Example 66]"
9,60,"CC(=O)N[C@@H]1CCC[C@H](C(=O)Nc2cc(-c3cnn4c3CCCC4O)c(Cl)cn2)C1 (stereo partly specified) [US10717746, Example 78]"
10,85,"CC(=O)N[C@@H]1CCC[C@H](C(=O)Nc2cc(-c3cn[nH]c3CCCCO)c(Cl)cn2)C1 [US10717746, Example 78a]"
11,139,"CC(=O)N[C@@H]1CCC[C@H](C(=O)Nc2cc(-c3cn[nH]c3CC(C)(C)CO)c(Cl)cn2)C1 [US10717746, Example 82a]"
